Data: patent US9593149B2, “Amylin and calcitonin receptor agonist” (Novo Nordisk A/S, priority 2014, dated 2017)
Numbered stars: 1 amine (or outer) side, 2 acyl side, 3 side chain; on linkers, the order of the positions; unused ones are H or OH. Peptide text beside a SMILES is read from it. * marks the point of attachment. C18 diacid = O=C(O)CCCCCCCCCCCCCCCCC(=O)*; γGlu = O=C(O)[C@H](CCC(=O)[*:2])N[*:1]

Legend:
[1] = Assay (IV) determination of solubility; type: physicochemical
Description: Assay (IV)—Determination of Solubility
The mimylin peptide was dissolved in water at ˜500 nmol/ml and mixed 1:1 with a series of buffers (100 mM glycylglycine pH 3.0, 100 mM glycylglycine pH 4.0, 100 mM glycylglycine pH 5.0, 100 mM bistrispropane pH 6.0, 100 mM bistrispropane pH 6.5, 100 mM bistrispropane pH 7.0, 100 mM bistrispropane pH 7.5, 100 mM bistrispropane pH 8.0).

[2] = Assay (XV) subcutaneous PK in LYD-pigs, co-formulated or co-dosed with liraglutide; type: in vivo; details: for Cmax/D / T½ (hous): LYD-pigs s.c.
Description: The studies were performed in female LYD pigs of SPF origin delivered from Lars Jonson, Hillerødvej 70, Lynge.
Before the animals arrived, the animal rooms and pens were cleaned and disinfected with Virkon S. During the study, the animal rooms were cleaned and washed regularly.
The pigs were group housed during the acclimatisation period. The pigs were fitted with a central venous catheter while under anaesthesia and after the single housed after catheterization in pens ≧3.1 m^2 with straw as bedding. The temperature in the rooms was set at 20−23° C. and the relative humidity to 30-70%. The rooms were illuminated to give a cycle of 12 hours light and 12 hours darkness. Light was on from 07.00 to 19.00 h.
The formulations was prepared similarly and filled in cartridges in all cases.
The animals were dosed subcutaneously as follows.
The s.c. dosing was performed in 4 mm depth, in a site of injection which was secured on beforehand by ultrasound to avoid muscular tissue or heavy vascularization. Dosing was made using NovoPen®4 and needle Novofine 28 G and a needle stopper to ensure 4 mm depth of injection. The needle was kept in the subcutis for 10 seconds after the injection to secure deposition of compound. […] The co-formulation was administered as one injection. Study was performed as a cross over study with adequate wash out between dosings.
Blood was sampled at predefined time points for up till 15 days post dosing to adequately cover the full plasma concentration-time profile of the mimylin derivative. Blood samples were drawn from a central venous catheter to jugularis made through the catheter which was afterwards flushed with 10 ml 0.9% NaCl.
For each blood sampling time point approximately 0.8 mL of whole blood was collected in a 1.5 mL EDTA coated tube, and the tube was gently turned to allowing mixing of the sample with the anticoagulant. Blood samples (for example 0.8 mL) were collected in EDTA buffer (8 mM) and then centrifuged at 4° C. and 2000 G for 10 minutes. Plasma was pipetted into Micronic tubes on dry ice, and kept at −20° C. until analysis.
Individual plasma concentration-time profiles were analysed by a non-compartmental model in Phoenix WinNonlin version 6.3 (Pharsight Inc., Mountain View, Calif., USA).
The area under the plasma concentration versus time curve (AUC, [time×concentration]) was calculated (by the Pharsight programme) after subcutaneous administration, typically until 240-288 hours post dosing, or until last measured concentration. The AUC was calculated and given as AUCinf-pred and dose normalized.
Results of co-formulation studies in LYD-pigs are summarized below

[3] = Assay (IX) pK, T½ in mini-pig; type: in vivo, Göttingen mini-pigs; details: i.v.
Description: Assay (IX)—pK—Determination of T½ in Mini-Pig
Pharmacokinetic (PK) studies in Göttingen mini-pigs were conducted in order to determine the T½ of the mimylin compound according to the Examples as indicated after i.v. administration.
T½ values of the amylin analogues of the invention is determined by pharmacokinetic studies in female Göttingen mini-pigs from Ellegaard Göttingen Minipigs ApS and the principles of laboratory animal care are followed.
An acclimatisation period of approximately 6-10 days was allowed before the animals entered the study. At start of the acclimatisation period the mini-pigs were about 5 to 12 months old and in the weight range of 15-35 kg. The mini-pigs had two central venous catheters inserted which were used for blood sampling.
The studies were conducted in an animal room which was illuminated to give a cycle of approximately 12 hours light and 12 hours darkness. The animals were housed individually. The animals had free access to domestic quality drinking water during the study, and no food restrictions applied for PK studies. The animals were weighed on arrival and on the days of dosing.
In the present studies the test substances were administered intravenously in approximately 5 nmol/kg dose. The animals received a single intravenous injection in one central venous catheter and blood sampling was performed from the other catheter, where possible. Each test substance was given to typically three but in some cases two or four animals.
A full plasma concentration-time profile, employing 12-16 sampling points, was obtained from each animal. In example blood samples were collected according to the following schedule:
After Intravenous Administration:
Pre-dose (0), 0.5, 1, 2, 4, 6, 8, 12, 24, 48, 72, 96, 120, 168 and 240 hours after injection. In some cases also additional blood samples up to 288 hours post injection were taken.
At each sampling time, 0.5 to 2 ml of blood was drawn from each animal. The blood samples were taken via the central venous catheter.
The 0.8 mL blood samples were collected into EDTA test tubes (8 mM EDTA). Blood samples were kept on ice for max 20 min. before centrifugation. Plasma was separated using centrifugation (i.e. at 4° C., 10 min., 2000G) and was immediately transferred to Micronic tubes on dry ice. Approximately 200 μl plasma was transferred to each Micronic tube. The plasma was stored at −20° C. until assayed. The plasma samples were assayed for the content of compound using LCMS.
The plasma concentration-time profiles were analysed by a non-compartmental pharmacokinetic analysis (NCA) using Phoenix WinNonlin 6.3 (Pharsight Inc., Mountain View, Calif., USA). NCA was performed using the individual plasma concentration-time profiles from each animal. T½ is the terminal half-life=In2/λz and was determined from λz, the first order rate constant associated with the terminal (log-linear) portion of the curve, estimated by linear regression of time vs. log concentration.
MS-Method for Amylin and Mimylin Quantification
40 μl plasma is diluted with 120 μl 66.67% EtOH+1% HCOOH and mixed. Centrifuged for 20 min. at 13000 rpm, 4° C. The supernatant is analyzed by an LC-MS method on a Sciex API 3000 and quantitated with a standard made up in plasma

[4] = Co-formulation liraglutide + Ex #46

- Solubility ([1]; pH 3.0): ≧200 μM
- Solubility ([1]; pH 4.0): ≧200 μM
- Solubility ([1]; pH 5.0): ≧200 μM
- Solubility ([1]; pH 6.0): ≧200 μM
- Solubility ([1]; pH 6.5): ≧200 μM
- Solubility ([1]; pH 7.0): ≧200 μM
- Solubility ([1]; pH 7.5): ≧200 μM
- Solubility ([1]; pH 8.0): ≧200 μM
- Cmax/D ([2]; Co-dosing liraglutide + Ex #46): 5.2 kg/L
- T½ (hous) ([2]; Co-dosing liraglutide + Ex #46): 129 hous
- Cmax/D [2, 4]: 5.7 kg/L
- T½ (hous) [2, 4]: 133 hous
- PK mini pig iv T½ [3]: 118 h
SMILES: CC(C)C[C@H](NC(=O)[C@H](C)NC(=O)[C@H](C)NC(=O)[C@@H](NC(=O)[C@H](CO)NC(=O)[C@H](CC(C)C)NC(=O)[C@H](CCC(=O)O)NC(=O)[C@H](CO)NC(=O)[C@H](C)NC(=O)CC[C@H](NC(=O)CCCCCCCCCCCCCCCCC(=O)O)C(=O)O)[C@@H](C)O)C(=O)NCC(=O)N[C@@H](CCCNC(=N)N)C(=O)N[C@@H](CC(C)C)C(=O)N[C@@H](CO)C(=O)N[C@@H](C)C(=O)N[C@@H](CCC(=O)O)C(=O)N[C@@H](CC(C)C)C(=O)N[C@@H](Cc1cnc[nH]1)C(=O)N[C@@H](CCC(=O)O)C(=O)N[C@@H](CC(C)C)C(=O)N[C@@H](C)C(=O)N[C@H](C(=O)N[C@@H](CC(C)C)C(=O)N1CCC[C@H]1C(=O)N[C@@H](CCCNC(=N)N)C(=O)N[C@H](C(=O)N[C@@H](CCC(=O)O)C(=O)N[C@H](C(=O)NCC(=O)N[C@@H](CO)C(=O)NCC(=O)N[C@@H](CO)C(=O)N1CCC[C@H]1C(N)=O)[C@@H](C)O)[C@@H](C)O)[C@@H](C)O [Ex. #46, [N-terminal(C18 diacid-gGlu), des1, 30S, 31G]mimylin] ({C18 diacid-γGlu}-ASELSTAALGRLSAELHELATLPRTETGSGSP-NH2)
- effect on PK profile of the co-formulated peptide ([2]; administered as co-formulations to LYD pigs): do not affect the PK profile of liraglutide
